Results published in PubChem BioAssay AID248 (DTP/NCI, 2004).
Several values for one entry are separate records, joined by “and”; a condition that tells them apart may be missing. Identical values can stand only once. Inconclusive results and toxic doses are left out. Cut-off read from the data, not from the text of the source: active = T/C of 150% or more; inactive = T/C below 125%.

Test system: L1210 leukemia ip in BDF1 mice, survival T/C
Experiment: NCI In Vivo Anticancer Drug Screen. Data for tumor model L1210 Leukemia (intraperitoneal) in B6D2F1 (BDF1) mice
Conditions: higher = longer survival
In short: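 Antitumor effect is assessed in tumor-bearing animals. Survival in the compound arm is compared with a vehicle-dosed control arm and expressed as their quotient.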

Measured: T/C

CC[C@]1(O)C[C@H]2CN(CCc3c([nH]c4ccccc34)[C@@](C(=O)OC)(c3cc4c(cc3OC)N(C=O)[C@H]3[C@@](O)(C(=O)OC)[C@H](OC(C)=O)[C@]5(CC)C=CCN6CC[C@]43[C@@H]65)C2)C1
inactive: endpoint: mean survival time, dose: 0.03 mg/kg/injection, schedule: Q01DX015 (ip), vehicle: saline 108 % of control | endpoint: mean survival time, dose: 0.03 mg/kg/injection, schedule: Q03HX032 (ip), vehicle: saline 107 % of control | endpoint: mean survival time, dose: 0.03 mg/kg/injection, schedule: Q## X032 (ip), vehicle: saline 107 % of control | endpoint: mean survival time, dose: 0.04 mg/kg/injection, schedule: Q03HX032 (ip), vehicle: saline 109 % of control | endpoint: mean survival time, dose: 0.04 mg/kg/injection, schedule: Q## X032 (ip), vehicle: saline 109 % of control | endpoint: mean survival time, dose: 0.05 mg/kg/injection, schedule: Q01DX005 (ip), vehicle: saline 101 % of control | endpoint: mean survival time, dose: 0.05 mg/kg/injection, schedule: Q01DX005 (iv), vehicle: saline 101 % of control | endpoint: mean survival time, dose: 0.05 mg/kg/injection, schedule: Q01DX015 (ip), vehicle: saline 108 % of control | endpoint: mean survival time, dose: 0.06 mg/kg/injection, schedule: Q01DX Z (ip), vehicle: water 105 % of control | endpoint: mean survival time, dose: 0.06 mg/kg/injection, schedule: Q## X032 (ip), vehicle: saline 113 % of control | endpoint: mean survival time, dose: 0.07 mg/kg/injection, schedule: Q03HX032 (ip), vehicle: saline 113 % of control | endpoint: mean survival time, dose: 0.08 mg/kg/injection, schedule: Q04DX002 (ip), vehicle: saline 102 % of control and 104 % of control | endpoint: mean survival time, dose: 0.1 mg/kg/injection, schedule: Q01DX005 (ip), vehicle: saline 116 % of control | endpoint: mean survival time, dose: 0.1 mg/kg/injection, schedule: Q01DX005 (iv), vehicle: saline 100 % of control | endpoint: mean survival time, dose: 0.12 mg/kg/injection, schedule: Q01DX Z (ip), vehicle: water 108 % of control | endpoint: mean survival time, dose: 0.15 mg/kg/injection, schedule: Q01DX015 (ip), vehicle: saline 114 % of control | endpoint: mean survival time, dose: 0.15 mg/kg/injection, schedule: Q04DX002 (ip), vehicle: saline 100 % of control and 105 % of control | endpoint: mean survival time, dose: 0.2 mg/kg/injection, schedule: Q01DX005 (ip), vehicle: saline 115 % of control | endpoint: mean survival time, dose: 0.2 mg/kg/injection, schedule: Q01DX005 (iv), vehicle: saline 106 % of control | endpoint: mean survival time, dose: 0.2 mg/kg/injection, schedule: Q04DX002 (ip), vehicle: saline 104 % of control | endpoint: mean survival time, dose: 0.23 mg/kg/injection, schedule: Q04DX003 (ip), vehicle: saline 110 % of control | endpoint: mean survival time, dose: 0.25 mg/kg/injection, schedule: Q01DX Z (ip), vehicle: water 115 % of control | endpoint: mean survival time, dose: 0.39 mg/kg/injection, schedule: Q04DX002 (ip), vehicle: saline 110 % of control | endpoint: mean survival time, dose: 0.4 mg/kg/injection, schedule: Q01DX005 (ip), vehicle: saline 105 % of control | endpoint: mean survival time, dose: 0.4 mg/kg/injection, schedule: Q01DX005 (iv), vehicle: saline 100 % of control | endpoint: mean survival time, dose: 0.5 mg/kg/injection, schedule: Q01DX009 (ip), vehicle: saline 105 % of control | endpoint: mean survival time, dose: 0.5 mg/kg/injection, schedule: Q01DX Z (ip), vehicle: saline 97 % of control | endpoint: mean survival time, dose: 0.5 mg/kg/injection, schedule: Q01DX Z (ip), vehicle: water 108 % of control | endpoint: mean survival time, dose: 0.5 mg/kg/injection, schedule: Q04DX004 (ip), vehicle: saline 110 % of control | endpoint: mean survival time, dose: 0.75 mg/kg/injection, schedule: Q01DX015 (ip), vehicle: saline 113 % of control | endpoint: mean survival time, dose: 0.8 mg/kg/injection, schedule: Q01DX001 (ip), vehicle: saline 115 % of control | endpoint: mean survival time, dose: 0.8 mg/kg/injection, schedule: Q01DX005 (iv), vehicle: saline 116 % of control | endpoint: mean survival time, dose: 0.8 mg/kg/injection, schedule: Q01DX015 (ip), vehicle: saline 108 % of control | endpoint: mean survival time, dose: 1.0 mg/kg/injection, schedule: Q01DX Z (ip), vehicle: water 95 % of control and 99 % of control | endpoint: mean survival time, dose: 1.0 mg/kg/injection, schedule: Q04DX004 (ip), vehicle: saline 115 % of control | endpoint: mean survival time, dose: 1.12 mg/kg/injection, schedule: Q01DX015 (ip), vehicle: saline 105 % of control | endpoint: mean survival time, dose: 1.5 mg/kg/injection, schedule: Q01DX001 (ip), vehicle: water 109 % of control and 112 % of control | endpoint: mean survival time, dose: 1.5 mg/kg/injection, schedule: Q04DX002 (ip), vehicle: saline 116 % of control | endpoint: mean survival time, dose: 6.0 mg/kg/injection, schedule: Q01DX001 (ip), vehicle: water 107 % of control | endpoint: mean survival time, dose: 3.2 micrograms/kg/injection, schedule: Q01DX015 (ip), vehicle: saline 94 % of control | endpoint: mean survival time, dose: 6.3 micrograms/kg/injection, schedule: Q01DX015 (ip), vehicle: saline 97 % of control | endpoint: mean survival time, dose: 11.0 micrograms/kg/injection, schedule: Q01DX009 (ip), vehicle: saline 102 % of control and 109 % of control | endpoint: mean survival time, dose: 12.5 micrograms/kg/injection, schedule: Q01DX015 (ip), vehicle: saline 98 % of control | endpoint: mean survival time, dose: 15.6 micrograms/kg/injection, schedule: Q03HX008 (ip), vehicle: clinical formulation 104 % of control | endpoint: mean survival time, dose: 15.6 micrograms/kg/injection, schedule: Q03HX016 (ip), vehicle: clinical formulation 100 % of control | endpoint: mean survival time, dose: 15.6 micrograms/kg/injection, schedule: Q03HX024 (ip), vehicle: clinical formulation 102 % of control | endpoint: mean survival time, dose: 23.0 micrograms/kg/injection, schedule: Q01DX009 (ip), vehicle: saline 98 % of control and 100 % of control | endpoint: mean survival time, dose: 25.0 micrograms/kg/injection, schedule: Q01DX015 (ip), vehicle: saline 112 % of control | endpoint: mean survival time, dose: 31.2 micrograms/kg/injection, schedule: Q01DX009 (ip), vehicle: clinical formulation 102 % of control | endpoint: mean survival time, dose: 31.2 micrograms/kg/injection, schedule: Q03HX008 (ip), vehicle: clinical formulation 106 % of control | endpoint: mean survival time, dose: 31.2 micrograms/kg/injection, schedule: Q03HX016 (ip), vehicle: clinical formulation 105 % of control | endpoint: mean survival time, dose: 47.0 micrograms/kg/injection, schedule: Q01DX009 (ip), vehicle: saline 109 % of control and 114 % of control | endpoint: mean survival time, dose: 50.0 micrograms/kg/injection, schedule: Q01DX015 (ip), vehicle: saline 113 % of control | endpoint: mean survival time, dose: 62.5 micrograms/kg/injection, schedule: Q03HX008 (ip), vehicle: clinical formulation 112 % of control | endpoint: mean survival time, dose: 62.5 micrograms/kg/injection, schedule: Q03HX016 (ip), vehicle: clinical formulation 105 % of control | endpoint: mean survival time, dose: 62.5 micrograms/kg/injection, schedule: Q04DX003 (ip), vehicle: clinical formulation 113 % of control | endpoint: mean survival time, dose: 100.0 micrograms/kg/injection, schedule: Q01DX015 (ip), vehicle: saline 103 % of control | endpoint: mean survival time, dose: 125.0 micrograms/kg/injection, schedule: Q01DX001 (ip), vehicle: clinical formulation 104 % of control | endpoint: mean survival time, dose: 125.0 micrograms/kg/injection, schedule: Q04DX003 (ip), vehicle: clinical formulation 115 % of control | endpoint: mean survival time, dose: 125.0 micrograms/kg/injection, schedule: Q08DX002 (ip), vehicle: clinical formulation 101 % of control | endpoint: mean survival time, dose: 200.0 micrograms/kg/injection, schedule: Q01DX015 (ip), vehicle: saline 115 % of control | endpoint: mean survival time, dose: 216.0 micrograms/kg/injection, schedule: Q04DX003 (ip), vehicle: saline 116 % of control | endpoint: mean survival time, dose: 250.0 micrograms/kg/injection, schedule: Q01DX001 (ip), vehicle: clinical formulation 106 % of control | endpoint: mean survival time, dose: 250.0 micrograms/kg/injection, schedule: Q03HX024 (ip), vehicle: clinical formulation 98 % of control | endpoint: mean survival time, dose: 250.0 micrograms/kg/injection, schedule: Q04DX003 (ip), vehicle: clinical formulation 116 % of control | endpoint: mean survival time, dose: 250.0 micrograms/kg/injection, schedule: Q08DX002 (ip), vehicle: clinical formulation 108 % of control | endpoint: mean survival time, dose: 500.0 micrograms/kg/injection, schedule: Q01DX001 (ip), vehicle: clinical formulation 113 % of control | endpoint: mean survival time, dose: 500.0 micrograms/kg/injection, schedule: Q08DX002 (ip), vehicle: clinical formulation 106 % of control | endpoint: mean survival time, dose: 600.0 micrograms/kg/injection, schedule: Q04DX003 (ip), vehicle: saline 112 % of control | endpoint: mean survival time, dose: 740.0 micrograms/kg/injection, schedule: Q01DX009 (ip), vehicle: saline 92 % of control and 102 % of control | endpoint: mean survival time, dose: 1000.0 micrograms/kg/injection, schedule: Q08DX002 (ip), vehicle: clinical formulation 108 % of control | endpoint: mean survival time, dose: 2000.0 micrograms/kg/injection, schedule: Q01DX001 (ip), vehicle: clinical formulation 116 % of control | endpoint: median survival time, dose: 0.02 mg/kg/injection, schedule: Q01DX001 (ip), vehicle: water 103 % of control | endpoint: median survival time, dose: 0.03 mg/kg/injection, schedule: Q01DX001 (ip), vehicle: water 103 % of control | endpoint: median survival time, dose: 0.05 mg/kg/injection, schedule: Q01DX001 (ip), vehicle: water 108 % of control | endpoint: median survival time, dose: 0.14 mg/kg/injection, schedule: Q01DX009 (ip), vehicle: water 114 % of control | endpoint: median survival time, dose: 0.25 mg/kg/injection, schedule: Q01DX002 (ip), vehicle: water 110 % of control | endpoint: median survival time, dose: 0.25 mg/kg/injection, schedule: Q01DX009 (ip), vehicle: water 115 % of control | endpoint: median survival time, dose: 0.4 mg/kg/injection, schedule: Q01DX001 (ip), vehicle: saline 111 % of control | endpoint: median survival time, dose: 0.4 mg/kg/injection, schedule: Q01DX009 (ip), vehicle: water 100 % of control and 103 % of control | endpoint: median survival time, dose: 0.5 mg/kg/injection, schedule: Q01DX001 (ip), vehicle: water 99 % of control and 100 % of control | endpoint: median survival time, dose: 1.0 mg/kg/injection, schedule: Q01DX001 (ip), vehicle: water 102 % of control | endpoint: median survival time, dose: 2.0 mg/kg/injection, schedule: Q01DX001 (ip), vehicle: water 116 % of control | endpoint: median survival time, dose: 2.0 mg/kg/injection, schedule: Q01DX002 (ip), vehicle: water 108 % of control
